The values that follow come from US20100137419A1, “ANTI-CANCER AGENT” (WAN STATION CO., LTD., priority 2006, published 2010).

Data set [1] in a line: heat stability of the rotaxane compound. The class given is physicochemical.
The test system of data set [2] is mouse malignant melanoma cell line (B16). Nature of the data set: Examination of anti-cancer action 1 (without electroporation), cell survival rate with Tetra Color One. Conditions: 10 and 100 nM, DMSO 0.1%, without electroporation, 0, 24, 48, 72 hours (FIG. 3). In kind it is cell-based. The protocol:
(§1) Subsequently, the cell line contained in each of the samples A0 to A5 was cultured in a CO2 incubator for 24 hours. The temperature in the CO2 incubator was set at 37.0° C., and the concentration of CO2 was set at 5.0%. Thereafter, 10 μl of a cell proliferation test reagent (manufactured by Seikagaku Corp.; product name: Tetra Color One) was added to each sample, and they were reacted in a CO2 incubator for 2 hours. Thereafter, the absorbance at a wavelength of 450 nm (control wavelength: 600 nm) was measured using a microplate reader (manufactured by Bio-Rad Laboratories, Inc.), so as to measure the survival rate of the cell line. The survival rate was measured at time points of 24, 48, and 72 hours after the reaction with the cell proliferation test reagent.
Subsequently, the cell line contained in the samples C0 to C2 were cultured under the same conditions as those described in the “determination of solvent concentration” above, and the cell proliferation test reagent was reacted therewith. Then, the survival rate of the cells was measured at 0, 24, 48, and 72 hours after the reaction.

Data set [3] shares this test system. Nature of the data set: Examination of anti-cancer action 2 (with electroporation), cell survival rate with Tetra Color One. In kind it is cell-based. The conditions noted are these: DMSO 0.1%. As for the experimental part: as §1
Thereafter, a DC pulse of 30 V was applied to the electrodes of each cuvette 10 times, so as to perform an electroporation operation.
Subsequently, the cell line contained in the samples D0 to D2 were cultured under the same conditions as those described in the “determination of solvent concentration” above, and the cell proliferation test reagent was reacted therewith. Then, the survival rate of the cells was measured at 0, 24, 48, and 72 hours after the reaction.

As for “[2][bis (2-(3,5-dimethylphenylcarbonyloxy)ethyl) ammonium trifluoromethanesulfonate]-[dibenzo-24-crown-8] rotaxane”, in data set [1], the heat stability entry is listed as “relatively heat-stable”. The “survival rate / proliferation of cancer cells” value was “has an effect of retarding the proliferation of cancer cells” in data set [2]; “suppress the proliferation of cancer cells became significant” in data set [3] (10 and 100 nM, electroporation 30 V DC pulse 10 times, 0, 24, 48, 72 hours (FIG. 4)). In addition, in data set [3] (sample D2: 100 nM, electroporation 30 V, 0-72 hours (FIG. 4)), the “survival rate / number of cancer cells over time” value is “cancer cells were reduced over time”.
